Common to all, as to format: cell-based
In assay [1] the test system is Wnt activity (Sp5-Luc reporter, SW480 colon carcinoma cells). As to the kind of experiment: Screening assay for Wnt activity: Sp5-Luc reporter gene assay in SW480 cells. The note with it: Homo sapiens; for inhibition at 10 µM: 10 μM compound, read-out: percent inhibition at 10 μM (given for EC50 of >10 μM); for EC50: overnight incubation, 10-point dose-response from 10 μM. In a few lines:
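Luminescence (BrightGlo) read after overnight 37 °C exposure of Sp5-Luc SW480 reporter cells, 4,000/well in 1% FBS, to compound dosed 1:3 over 10 points from 10 μM with 0.1% DMSO. Values normalized to DMSO-only cells, fitted with variable-slope four-parameter model; where EC50 exceeds 10 μM, % inhibition at 10 μM reported.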
(In general: Reporter assays use an easily measured gene product as a stand-in for the process of interest.)

The next assay deals with SW480 colon cancer cells. As to the kind of experiment: Cell viability assay (CellTiter-Blue), four days. The note with it: Homo sapiens, 96 h; for EC50: CellTiter-Blue cell viability; for inhibition at 10 µM: read-out: percent inhibition at 10 μM (given for EC50 of >10 μM). In outline: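 Four-day viability readout in SW480 cells: compound at 0.0045–10 μM (1:3 series), DMSO controls in eight replicates, CellTiter-Blue fluorescence after ~3 h. Values are regression-derived EC50s, or percent inhibition at 10 μM when EC50 exceeds 10 μM.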
Background: The colour change of resazurin is a common sign of viable cells or microbes.

A further assay relates to IL-6 (THP-1 cells). As to the kind of experiment: Inhibition of IL-6 in LPS-stimulated THP-1 monocytes (HTRF). The note with it: Homo sapiens; for EC50: LPS 500 ng/mL, IL-6 by HTRF; for inhibition at 10 µM: LPS stimulated, IL-6, at 10 μM, read-out: percent inhibition at 10 μM (given for EC50 of >10 μM). In a few lines:
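IL-6 release was read as the HTRF 665/620 nm ratio after 22 h of 500 ng/mL LPS at 37 °C. Before stimulation, THP-1 cells kept 24 h in 1% FBS were exposed 2 h to a 10-point 1:3 compound series starting at 10 μM, in 0.1% DMSO. Four-parameter EC50s came from DMSO-normalized duplicates, with % inhibition at 10 μM reported beyond 10 μM.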
(In general: In TR-FRET formats the signal depends on donor and acceptor labels being close together.)

On to `CN1CCN(c2ccnc3[nH]c(-c4n[nH]c5ccc(-c6cncc(N)c6)nc45)nc23)CC1` [Compound 227, 5-(3-(7-(4-methylpiperazin-1-yl)-3H-imidazo[4,5-b]pyridin-2-yl)-1H-pyrazolo[4,3-b]pyridin-5-yl)pyridin-3-amine], for which the figures for the inhibition at 10 µM (in assay [1]; in the assay on SW480 colon cancer cells; with IL-6 (THP-1 cells)) were 8.2%, 0% and 51.9%, respectively. Besides, the EC50 (in assay [1]; in the assay with SW480 colon cancer cells; in the assay with IL-6 (THP-1 cells)) was over 10 µM throughout.

`c1cc(-c2ccc3c(c2)OCO3)c2nc(-c3n[nH]c4ccc(C5CCNCC5)nc34)[nH]c2n1` [Compound 1108, 3-(7-(Benzo[d][1,3]dioxol-5-yl)-3H-imidazo[4,5-b]pyridin-2-yl)-5-(piperidin-4-yl)-1H-pyrazolo[4,3-b]pyridine]: the inhibition at 10 µM turned out to be 9.3% in assay [1], 0% in the assay on SW480 colon cancer cells and 30.1% with IL-6 (THP-1 cells). In addition, the EC50 (in assay [1]; in the assay with SW480 colon cancer cells; with IL-6 (THP-1 cells)) was over 10 µM throughout.

In the case of `Cc1cn(-c2ccnc3[nH]c(-c4n[nH]c5ccc(-c6cncc(NC(=O)C7CCC7)c6)nc45)nc23)cn1` [Compound 217, N-(5-(3-(7-(4-methyl-1H-imidazol-1-yl)-3H-imidazo[4,5-b]pyridin-2-yl)-1H-pyrazolo[4,3-b]pyridin-5-yl)pyridin-3-yl)cyclobutanecarboxamide], the inhibition at 10 µM in assay [1] amounted to 13.9%; in the assay with SW480 colon cancer cells, 2.1%; in the assay with IL-6 (THP-1 cells) it was 35.6%. Also, the half-maximal effective concentration (EC50) (in assay [1]; with SW480 colon cancer cells; with IL-6 (THP-1 cells)) was over 10 µM each time.

As for `c1ccc(COc2cncc(-c3ccc4[nH]nc(-c5nc6c(-c7ccncc7)ccnc6[nH]5)c4n3)c2)cc1` [Compound 582, 5-(5-(Benzyloxy)pyridin-3-yl)-3-(7-(pyridin-4-yl)-3H-imidazo[4,5-b]pyridin-2-yl)-1H-pyrazolo[4,3-b]pyridine], the inhibition at 10 µM in assay [1] came out at 5.8%; in the assay on SW480 colon cancer cells, 2.6%; in the assay on IL-6 (THP-1 cells), 3.2%. For the same compound, the EC50 (in assay [1]; with SW480 colon cancer cells; in the assay with IL-6 (THP-1 cells)) was over 10 µM each time.

With `c1cnc2[nH]c(-c3n[nH]c4ccc(-c5cncc(OC6CCNCC6)c5)nc34)nc2c1` [Compound 656, 3-(3H-Imidazo[4,5-b]pyridin-2-yl)-5-(5-(piperidin-4-yloxy)pyridin-3-yl)-1H-pyrazolo[4,3-b]pyridine], the inhibition at 10 µM in assay [1] was 22.1%; in the assay on SW480 colon cancer cells, 11.4%. Moreover, the results for the EC50 (in assay [1]; in the assay with SW480 colon cancer cells; in the assay on IL-6 (THP-1 cells)) were over 10 µM, over 10 µM and 7.6 µM, respectively.

For `c1cc(N2CCCCC2)c2nc(-c3n[nH]c4ccc(-c5cncc(OCCN6CCCC6)c5)nc34)[nH]c2n1` [Compound 610, 3-(7-(Piperidin-1-yl)-3H-imidazo[4,5-b]pyridin-2-yl)-5-(5-(2-(pyrrolidin-1-yl)ethoxy)pyridin-3-yl)-1H-pyrazolo[4,3-b]pyridine], the inhibition at 10 µM was found to be 4.8% in assay [1], 3.5% in the assay with SW480 colon cancer cells and 25.3% with IL-6 (THP-1 cells). Further, the EC50 (in assay [1]; in the assay on SW480 colon cancer cells; in the assay on IL-6 (THP-1 cells)) was over 10 µM in each case.

Take `CN(C)c1cncc(-c2ccc3[nH]nc(-c4nc5c(N6CCCCC6)ccnc5[nH]4)c3n2)c1` [Compound 175, N,N-dimethyl-5-(3-(7-(piperidin-1-yl)-3H-imidazo[4,5-b]pyridin-2-yl)-1H-pyrazolo [4,3-b]pyridin-5-yl)pyridin-3-amine]: the inhibition at 10 µM in assay [1] turned out to be 0%; in the assay with SW480 colon cancer cells, 13.6%; in the assay on IL-6 (THP-1 cells) it was 27.6%. Further, the 50% effective concentration (EC50) (in assay [1]; in the assay with SW480 colon cancer cells; in the assay on IL-6 (THP-1 cells)) was over 10 µM in each case.

As to `C1=C(c2ccc3[nH]nc(-c4nc5c(-c6ccc7c(c6)OCO7)ccnc5[nH]4)c3n2)CCNC1` [Compound 1109, 3-(7-(Benzo[d][1,3]dioxol-5-yl)-3H-imidazo[4,5-b]pyridin-2-yl)-5-(1,2,3,6-tetrahydropyridin-4-yl)-1H-pyrazolo[4,3-b]pyridine], the figures for the inhibition at 10 µM (in assay [1]; in the assay with SW480 colon cancer cells; with IL-6 (THP-1 cells)) were 14.5%, 10.9% and 20.5%, respectively. For the same compound, the EC50 (in assay [1]; in the assay on SW480 colon cancer cells; in the assay on IL-6 (THP-1 cells)) was over 10 µM throughout.

For `CC(C)C(=O)Nc1cncc(-c2ccc3[nH]nc(-c4nc5c(-c6ccccc6F)ccnc5[nH]4)c3n2)c1` [Compound 65, N-(5-(3-(7-(2-fluorophenyl)-3H-imidazo[4,5-b]pyridin-2-yl)-1H-pyrazolo [4,3-b]pyridin-5-yl)pyridin-3-yl)isobutyramide], the inhibition at 10 µM in assay [1] was found to be 14.3%; in the assay on SW480 colon cancer cells, 7.5%. Moreover, the EC50 is over 10 µM in assay [1], over 10 µM with SW480 colon cancer cells and 0.151 µM with IL-6 (THP-1 cells).

Take `O=C(Cc1ccccc1)Nc1cncc(-c2ccc3[nH]nc(-c4nc5cccnc5[nH]4)c3n2)c1` [Compound 262, N-(5-(3-(3H-imidazo[4,5-b]pyridin-2-yl)-1H-pyrazolo[4,3-b]pyridin-5-yl)pyridin-3-yl)-2-phenylacetamide]: the figures for the inhibition at 10 µM (in assay [1]; with SW480 colon cancer cells; in the assay with IL-6 (THP-1 cells)) were 7.6%, 5.5% and 17.3%, respectively. Besides, the EC50 (in assay [1]; in the assay on SW480 colon cancer cells; in the assay on IL-6 (THP-1 cells)) was over 10 µM in each case.

As to `CC(C)C(=O)Nc1cncc(-c2ccc3[nH]nc(-c4nc5c(N6CCN(C)CC6)ccnc5[nH]4)c3n2)c1` [Compound 233, N-(5-(3-(7-(4-methylpiperazin-1-yl)-3H-imidazo[4,5-b]pyridin-2-yl)-1H-pyrazolo [4,3-b]pyridin-5-yl)pyridin-3-yl)isobutyramide], the figures for the inhibition at 10 µM (in assay [1]; in the assay on SW480 colon cancer cells; in the assay on IL-6 (THP-1 cells)) were 2.3%, 0% and 16.4%, respectively. The EC50 (in assay [1]; with SW480 colon cancer cells; with IL-6 (THP-1 cells)) was over 10 µM each time.

As to `c1cncc(-c2ccnc3[nH]c(-c4n[nH]c5ccc(-c6cncc(OC7CCCCC7)c6)nc45)nc23)c1` [Compound 559, 5-(5-(Cyclohexyloxy)pyridin-3-yl)-3-(7-(pyridin-3-yl)-3H-imidazo[4,5-b]pyridin-2-yl)-1H-pyrazolo[4,3-b]pyridine], the inhibition at 10 µM in assay [1] turned out to be 12.4%; in the assay with SW480 colon cancer cells, 4%; with IL-6 (THP-1 cells), 31.6%. The EC50 (in assay [1]; in the assay on SW480 colon cancer cells; with IL-6 (THP-1 cells)) was over 10 µM each time.

For the compound `CN(C)c1cncc(-c2ccc3[nH]nc(-c4nc5c(-c6cccs6)ccnc5[nH]4)c3n2)c1` [Compound 343, N,N-dimethyl-5-(3-(7-(thiophen-2-yl)-3H-imidazo[4,5-b]pyridin-2-yl)-1H-pyrazolo [4,3-b]pyridin-5-yl)pyridin-3-amine], the inhibition at 10 µM in assay [1] was 31.7%; in the assay on SW480 colon cancer cells, 17.5%. In addition, the EC50 in assay [1] is over 10 µM; in the assay with SW480 colon cancer cells it was over 10 µM; in the assay with IL-6 (THP-1 cells), 0.004 µM.

On to `c1cncc(-c2ccc3[nH]nc(-c4nc5cccnc5[nH]4)c3n2)c1` [Compound 256, 3-(3H-imidazo[4,5-b]pyridin-2-yl)-5-(pyridin-3-yl)-1H-pyrazolo[4,3-b]pyridine], for which the inhibition at 10 µM is 43.4% in assay [1], 22.2% in the assay with SW480 colon cancer cells and 24.4% with IL-6 (THP-1 cells). Further, the EC50 (in assay [1]; in the assay with SW480 colon cancer cells; with IL-6 (THP-1 cells)) was over 10 µM each time.

`CCNCc1cncc(-c2ccc3[nH]nc(-c4nc5c(-c6ccccn6)ccnc5[nH]4)c3n2)c1` [Compound 146, N-((5-(3-(7-(pyridin-2-yl)-3H-imidazo[4,5-b]pyridin-2-yl)-1H-pyrazolo[4,3-b]pyridin-5-yl)pyridin-3-yl)methyl)ethanamine]: the values for the inhibition at 10 µM (in assay [1]; with SW480 colon cancer cells; with IL-6 (THP-1 cells)) were 10.6%, 23.3% and 4.5%, respectively. The EC50 (in assay [1]; in the assay on SW480 colon cancer cells; in the assay with IL-6 (THP-1 cells)) was over 10 µM each time.

As for `CCCCC(=O)Nc1cncc(-c2ccc3[nH]nc(-c4nc5c(-c6ccccn6)ccnc5[nH]4)c3n2)c1` [Compound 159, N-(5-(3-(7-(pyridin-2-yl)-3H-imidazo[4,5-b]pyridin-2-yl)-1H-pyrazolo[4,3-b]pyridin-5-yl)pyridin-3-yl)pentanamide], the inhibition at 10 µM in assay [1] is 12.6%; in the assay with SW480 colon cancer cells, 6.7%; with IL-6 (THP-1 cells), 33.6%. For the same compound, the EC50 (in assay [1]; in the assay with SW480 colon cancer cells; in the assay on IL-6 (THP-1 cells)) was over 10 µM throughout.

The term inhibition denotes the change of the read-out against control, counted positive when it falls. What is called EC50 is the midpoint of the concentration-response curve. Low values mean higher potency in that assay, high ones lower potency in that assay.

These data come from patent US10329309B2, “3-(3H-imidazo[4,5-B]pyridin-2-yl)-1H-pyrazolo[4,3-B]pyridines and therapeutic uses thereof” (Samumed, LLC, priority 2015, dated 2019).
